molecular target: c-kit kinase (Homo sapiens (Human), UniProt P10721); assay: c-Kit biochemical assay (AlphaScreen); settings: c-kit biochemical inhibitory activity
How it was run: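 AlphaScreen of biotin-(E4Y)3 (100 nM) phosphorylation by c-kit (0.1 ng) in HEPES pH 7.2, Mg/Mn, 10 μM ATP, 5% DMSO, 1 h at room temperature; variant uses 100 μM ATP, 30 nM biotin-(E4Y)10, 1 ng enzyme. PY20 acceptor/streptavidin donor signal versus 8-point concentration gives IC50.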

c-kit kinase, sequence (P10721 26-976): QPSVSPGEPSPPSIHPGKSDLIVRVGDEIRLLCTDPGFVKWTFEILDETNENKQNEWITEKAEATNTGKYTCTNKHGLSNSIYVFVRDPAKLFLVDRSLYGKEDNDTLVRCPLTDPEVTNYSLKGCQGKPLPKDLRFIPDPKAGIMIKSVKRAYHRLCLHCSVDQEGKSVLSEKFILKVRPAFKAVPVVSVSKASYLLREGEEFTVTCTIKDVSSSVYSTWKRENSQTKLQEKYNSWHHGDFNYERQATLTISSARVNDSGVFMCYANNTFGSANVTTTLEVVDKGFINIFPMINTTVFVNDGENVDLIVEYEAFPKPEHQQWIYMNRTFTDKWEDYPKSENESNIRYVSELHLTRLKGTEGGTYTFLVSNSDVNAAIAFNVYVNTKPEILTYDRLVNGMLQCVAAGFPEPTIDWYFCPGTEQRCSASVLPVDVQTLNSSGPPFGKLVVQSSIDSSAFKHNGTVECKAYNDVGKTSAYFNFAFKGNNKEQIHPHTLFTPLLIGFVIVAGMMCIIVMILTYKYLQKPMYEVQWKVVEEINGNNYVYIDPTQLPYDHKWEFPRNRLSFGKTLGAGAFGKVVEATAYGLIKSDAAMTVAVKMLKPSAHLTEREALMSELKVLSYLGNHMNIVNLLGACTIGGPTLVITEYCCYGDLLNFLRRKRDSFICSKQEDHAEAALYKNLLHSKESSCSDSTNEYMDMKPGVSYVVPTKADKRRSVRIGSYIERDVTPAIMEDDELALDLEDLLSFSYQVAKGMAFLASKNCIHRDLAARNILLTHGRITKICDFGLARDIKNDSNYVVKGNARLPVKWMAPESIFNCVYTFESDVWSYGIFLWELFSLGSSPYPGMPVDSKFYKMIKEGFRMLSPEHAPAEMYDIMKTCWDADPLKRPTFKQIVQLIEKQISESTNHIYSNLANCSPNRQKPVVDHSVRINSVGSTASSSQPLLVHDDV

Compound	IC50
Cc1n[nH]c(C(=O)Nc2cnc3[nH]c(C4=CCC(N)CC4)cc3c2)c1C (stereo not drawn) [P-2080, N-[2-(4-aminocyclohexen-1-yl)-1H-pyrrolo[2,3-b]pyridin-5-yl]-3,4-dimethyl-1H-pyrazole-5-carboxamide]	1 to 10 µM
O=C(Nc1cnc2[nH]c(-c3ccccc3)cc2c1)c1[nH]ncc1Br [P-2005, 4-bromo-N-(2-phenyl-1H-pyrrolo[2,3-b]pyridin-5-yl)-1H-pyrazole-5-carboxamide]	1 to 10 µM
CC(=O)N1CC=C(c2cc3cc(NC(=O)c4[nH]nc(C)c4Cl)cnc3[nH]2)CC1 [P-2061, N-[2-(1-acetyl-3,6-dihydro-2H-pyridin-4-yl)-1H-pyrrolo[2,3-b]pyridin-5-yl]-4-chloro-3-methyl-1H-pyrazole-5-carboxamide]	0.0001 to 1 µM
Cc1[nH]nc(C(=O)Nc2cnc3[nH]c(-c4cccc(N5CCOCC5)c4)cc3c2)c1C [P-2070, 4,5-dimethyl-N-[2-(3-morpholinophenyl)-1H-pyrrolo[2,3-b]pyridin-5-yl]-1H-pyrazole-3-carboxamide]	1 to 10 µM
Cc1n[nH]c(C(=O)Nc2cnc3[nH]c(-c4ccc(C(=O)NC5CC5)cc4)cc3c2)c1C [P-2148, N-[2-[4-(cyclopropylcarbamoyl)phenyl]-1H-pyrrolo[2,3-b]pyridin-5-yl]-3,4-dimethyl-1H-pyrazole-5-carboxamide]	0.0001 to 1 µM
Cc1n[nH]c(C(=O)Nc2cnc3[nH]c(-c4c(C)noc4C)cc3c2)c1C [P-2065, N-[2-(3,5-dimethylisoxazol-4-yl)-1H-pyrrolo[2,3-b]pyridin-5-yl]-3,4-dimethyl-1H-pyrazole-5-carboxamide]	1 to 10 µM
Cc1n[nH]c(C(=O)Nc2cnc3sc(-c4ccccc4)nc3c2)c1C [P-2144, 3,4-dimethyl-N-(2-phenylthiazolo[5,4-b]pyridin-6-yl)-1H-pyrazole-5-carboxamide]	1 to 10 µM
Cc1cc(C(=O)Nc2cnc3[nH]c(-n4cccn4)cc3c2)[nH]n1 [P-2116, 3-methyl-N-(2-pyrazol-1-yl-1H-pyrrolo[2,3-b]pyridin-5-yl)-1H-pyrazole-5-carboxamide]	10 to 200 µM
Cc1n[nH]c(C(=O)Nc2cnc3[nH]c(-c4cccc(N5CCN(C(=O)C6CC6)CC5)c4)cc3c2)c1C [P-2118, N-[2-[3-[4-(cyclopropanecarbonyl)piperazin-1-yl]phenyl]-1H-pyrrolo[2,3-b]pyridin-5-yl]-3,4-dimethyl-1H-pyrazole-5-carboxamide]	10 to 200 µM
Cc1n[nH]c(C(=O)Nc2cnc3[nH]c(C4=CCN(C(=O)N5CCOCC5)C4)cc3c2)c1Cl [P-2062, 4-chloro-3-methyl-N-[2-[1-(morpholine-4-carbonyl)-2,5-dihydropyrrol-3-yl]-1H-pyrrolo[2,3-b]pyridin-5-yl]-1H-pyrazole-5-carboxamide]	0.0001 to 1 µM
Cc1n[nH]c(C(=O)Nc2cnc3[nH]c(C4=CCN(C(=O)C5CC5)C4)cc3c2)c1Cl [P-2060, 4-chloro-N-[2-[1-(cyclopropanecarbonyl)-2,5-dihydropyrrol-3-yl]-1H-pyrrolo[2,3-b]pyridin-5-yl]-3-methyl-1H-pyrazole-5-carboxamide]	0.0001 to 1 µM
Cc1n[nH]c(C(=O)Nc2cnc3[nH]c(-c4ccccc4)cc3c2)c1C [P-2007, 3,4-dimethyl-N-(2-phenyl-1H-pyrrolo[2,3-b]pyridin-5-yl)-1H-pyrazole-5-carboxamide]	0.0001 to 1 µM
Cc1n[nH]c(C(=O)Nc2cnc3[nH]c(-c4cccc(N5CCCC5)c4)cc3c2)c1C [P-2079, 3,4-dimethyl-N-[2-(3-pyrrolidin-1-ylphenyl)-1H-pyrrolo[2,3-b]pyridin-5-yl]-1H-pyrazole-5-carboxamide]	1 to 10 µM
Cc1[nH]nc(C(=O)Nc2cnc3[nH]c(-c4ccnc(N5CCN(C)CC5)c4)cc3c2)c1C [P-2069, 4,5-dimethyl-N-[2-[2-(4-methylpiperazin-1-yl)-4-pyridyl]-1H-pyrrolo[2,3-b]pyridin-5-yl]-1H-pyrazole-3-carboxamide]	1 to 10 µM
Cc1n[nH]c(C(=O)Nc2cnc3[nH]c(C4=CCN(C(=O)C(O)CO)CC4)cc3c2)c1C (stereo not drawn) [P-2074, N-[2-[1-(2,3-dihydroxypropanoyl)-3,6-dihydro-2H-pyridin-4-yl]-1H-pyrrolo[2,3-b]pyridin-5-yl]-3,4-dimethyl-1H-pyrazole-5-carboxamide]	0.0001 to 1 µM
Cc1n[nH]c(C(=O)Nc2cnc3[nH]c(-c4cccc(N(C)C)c4)cc3c2)c1C [P-2064, N-[2-[3-(dimethylamino)phenyl]-1H-pyrrolo[2,3-b]pyridin-5-yl]-3,4-dimethyl-1H-pyrazole-5-carboxamide]	0.0001 to 1 µM
CNC(=O)c1ccc(-c2cc3cc(NC(=O)c4[nH]nc(C)c4C)cnc3[nH]2)cc1 [P-2067, 3,4-dimethyl-N-[2-[4-(methylcarbamoyl)phenyl]-1H-pyrrolo[2,3-b]pyridin-5-yl]-1H-pyrazole-5-carboxamide]	1 to 10 µM
Cc1n[nH]c(C(=O)Nc2cnc3[nH]c(C4=CCN(C(=O)CN5CCOCC5)CC4)cc3c2)c1C [P-2073, 3,4-dimethyl-N-[2-[1-(2-morpholinoacetyl)-3,6-dihydro-2H-pyridin-4-yl]-1H-pyrrolo[2,3-b]pyridin-5-yl]-1H-pyrazole-5-carboxamide]	1 to 10 µM
Cc1[nH]nc(C(=O)Nc2cnc3[nH]c(-c4ccc(N5CCOCC5)cc4)cc3c2)c1C [P-2059, 4,5-dimethyl-N-[2-(4-morpholinophenyl)-1H-pyrrolo[2,3-b]pyridin-5-yl]-1H-pyrazole-3-carboxamide]	0.0001 to 1 µM
Cc1n[nH]c(C(=O)Nc2cnc3[nH]c(-n4cccn4)cc3c2)c1C [P-2112, 3,4-dimethyl-N-(2-pyrazol-1-yl-1H-pyrrolo[2,3-b]pyridin-5-yl)-1H-pyrazole-5-carboxamide]	1 to 10 µM
Cc1n[nH]c(C(=O)Nc2cnc3[nH]c(-c4ccc(C#N)c(N5CCOCC5)c4)cc3c2)c1C [P-2081, N-[2-(4-cyano-3-morpholino-phenyl)-1H-pyrrolo[2,3-b]pyridin-5-yl]-3,4-dimethyl-1H-pyrazole-5-carboxamide]	1 to 10 µM

Reference: patent US10301280B2 (Plexxikon Inc., priority 2012, dated 2019)
